Values of other authors as cited in patent US20260137644A1, “COMPOSITIONS INCLUDING CAFFEIC ACID PHENETHYL ESTER” (XMK THERAPEUTICS INC., priority 2022, published 2026).

Experiments:
[1] = tested on: carrageenin-induced inflammation
NFAT = conditions: Jurkat cells

Compound: O=C(/C=C/c1ccc(O)c(O)c1)OCCc1ccccc1 [CAPE, 2-phenylethyl (E)-3-(3,4-dihydroxyphenyl)prop-2-enoate]
- antimicrobial activity (Haemophilus influenzae): active
- antimicrobial activity (Staphylococcus aureus): active
- exudate volume [1]: suppresses
- leukocytes relocation [1]: suppresses
- interleukin-2 (IL-2) gene transcription and synthesis (interleukin-2 (IL-2)): inhibition
- antimicrobial activity (Listeria monocytogenes): active
- antimicrobial activity (Enterococcus faecalis): active
- binding with DNA and transcriptional activity of NFAT (NFAT): inhibition
